Reference: patent publication US20100260680A1, “NOVEL BONE MASS INCREASING AGENT” (ORIENTAL YEAST CO., LTD., priority 2007, published 2010)
“Also recorded” adds a separate entry of the source. Bridges are numbered along the chain shown (N, C = ends). Where no end group is shown, it is not given here.

Key:
[1] = system: MC3T3-E1 cells; experiment: ALP activity determination in MC3T3-E1 cells; format: cell-based, mouse
Description: Seven days after differentiation, the culture supernatant was removed from each plate and the cells were fixed with an acetone/ethanol solution. The ALP activity was determined using p-nitrophenyl phosphate as a substrate. Specifically, a carbonate buffer (5 mM MgCl2, 50 mM NaHCO3) containing p-nitrophenyl phosphate (Nacalai) (1 mg/mL) was added to each well (100 μL/well), followed by incubation at 37° C. Then, the OD value at 405 nm was determined with the use of a microplate reader (BMG Labtech) for each well.
(§1) Cells mixed with 10% FBS+αMEM (GIBCO) were seeded on a 96-well plate (8×10^3 cells/well) and a 48-well plate (2×10^4 cells/well). The culture supernatant of each plate was replaced with 10% FBS+αMEM containing 5 mM β glycerophosphoric acid (SIGMA)+10 μg/mL sodium ascorbate (SIGMA) 48 hours later. Then, the medium was replaced with new medium every 3 or 4 days. As a control, MC3T3-E1 was cultured with the use of 10% FBS+αMEM as a maintenance medium. Upon medium replacement, a peptide was added to each plate at a concentration of 300 μM, ALP activity determination and alizarin red S staining were carried out by the method described in Example 1 on Days 7 and 21.
MC3T3-E1 cells mixed with 10% FBS+αMEM (SIGMA) were seeded on a 96-well plate (1.5×10^4 cells/well). After 12 hours, the medium was removed therefrom and a medium containing an SB203580 p38 inhibitor (Calbiochem) was added thereto. […] Then, ALP activity determination was carried out by the method described in Example 1.
Similarly, rhDkk-1 (R&D) was added as a Wnt antagonist at concentrations of 0.25, 0.5, and 1 μg/ml. After 1 hour, 200 μM peptide D was added thereto, followed by culture for 5 days. Then, ALP activity determination was carried out by the method described in Example 1.
In addition, as described above, BMPR-IA (R&D) was added as a BMP antagonist at concentrations of 0.25 and 1 μg/ml. […] Then, ALP activity determination was carried out by the method described in Example 1. […] Based on the above results, it was likely that actions of peptide D depend on BMP induction or BMP produced constantly and spontaneously by cells.
MC3T3-E1 cells mixed with 10% FBS+α MEM (SIGMA) were seeded on a 96-well plate (1.5×10^4 cells/well).
Further, peptide D and peptide E were compared with each other in terms of ALP activity enhancement actions in MC3T3-E1 cells. Peptide D and peptide E were used at concentrations of 25, 50, 100, and 200 μM for culture under the conditions described in Example 14, followed by determination of ALP activity by the method described in Example 1.
MC3T3-E1 cells (mouse osteoblast precursor cells) mixed with 10% FBS+αMEM (SIGMA) were seeded on a 96-well plate (2×10^4 cells/well). After cell adhesion, the medium was removed therefrom, followed by ALP activity determination in the cases involving the addition of 50 and 150 μM peptide D (acetate and hydrochloride). […] On Day 5 after the addition of the individual factors, the culture supernatant was removed, followed by ALP activity determination by the method described in Example 1.
MC3T3-E1 cells (mouse osteoblast precursor cells) mixed with 10% FBS+αMEM (SIGMA) were seeded on a 96-well plate (2×10^4 cells/well). After cell adhesion had taken place, the medium was removed therefrom, followed by determination of ALP activity in the cases involving the mixing of 5 ng/mLBMP-2 (produced by CHO cells) with 6.25, 12.5, 25, 50, and 100 μM synthetic peptide D. On Day 5 after the addition of the individual factors, the culture supernatant was removed, followed by ALP activity determination by the method described in Example 1.
At the end of the experiment, synergistic effects of synthetic peptide D in the form of acetate and BMP-4 (R&D) were also examined. MC3T3-E1 cells (mouse osteoblast precursor cells) mixed with 10% FBS+αMEM (SIGMA) were seeded on a 96-well plate (2×10^4 cells/well). […]

[2] = system: mouse osteoblasts; experiment: Proliferative response of mouse osteoblasts (WST-1); format: cell-based; conditions: 100 μM peptide D (acetate) or 3 μg/mL antibody; with or without 5 ng/mL BMP-2; 72-hour culture
Description: Mouse osteoblasts mixed with 10% FBS+αMEM (SIGMA) were seeded on a 96-well plate (2×10^3 cells/well). After cell adhesion had taken place, the medium was removed therefrom. […] After 72-hour culture, WST-1 (Roche) was added thereto in an amount 1/10 that of each medium, followed by incubation at 37° C. for 3 hours. Then, the OD value (450 nm) for each well was determined with a microplate reader (BMG Labtech) (reference wavelength: 595 nm).

[3] = system: RANKL knock-down MC3T3-E1 cells; experiment: ALP activity in RANKL knock-down MC3T3-E1 cells; format: cell-based, mouse; conditions: KD1 and KD2; 200 μM peptide D or 200 ng/ml BMP-2; 5 days
[4] = system: Human mesenchymal stem cells; experiment: Alizarin red S staining (calcification) of human mesenchymal stem cells; format: cell-based; conditions: 300 μM; Day 21; regardless of induction of differentiation
Description: (§2) On Day 21 after differentiation, the cells were washed with PBS, followed by fixation with a 10% neutral buffer formalin solution.
(§3) The cells were washed with water after removal of the fixative solution. A 1% alizarin red S stain solution (Nacalai) (150 μL) was added thereto. The plate was left at room temperature for 3 minutes. Thereafter, the stain solution was discarded, followed by washing with water and drying. Then, microscopic observation was carried out.
Human mesenchymal stem cells were cultured in the same manner as in Example 1. Peptide D (300 μM) was added to human mesenchymal stem cells.

[5] = system: MC3T3-E1 cells; experiment: Alizarin red S staining (calcification) of MC3T3-E1 cells; format: cell-based, mouse; conditions: 300 μM; Day 21; differentiation medium and maintenance medium
Description: as §2, §3, §1

[6] = system: C2C12 cells; experiment: ALP activity determination in C2C12 cells; format: cell-based, mouse; conditions: 6 days

peptide D: cyclic peptide of SEQ ID NO: 7, 9 amino acids, two cysteine residues bound via a disulfide bond; binds to RANKL (YCWSQYLCY; disulfide 2-8 (inferred))
ALP activity ([1]; 150 μM peptide D combined with 30 ng/mL BMP-2): additive actions of ALP activity enhancement
ALP activity ([1]; 300 μM, Day 7 after differentiation): significantly increased
ALP activity ([1]; 25, 50, 100 and 200 μM, 5 days): enhance ALP activity in a concentration-dependent manner
ALP activity, peptide D compared with peptide E ([1]; 50 and 100 μM): significant enhancement actions compared with peptide E
mouse osteoblast proliferation (WST-1) [2]: promoted mouse osteoblast proliferation; also recorded: weak effects
ALP activity enhancement under RANKL knockdown [3]: significantly reduced
alizarin red staining (calcification) [4]: strong degree of alizarin red staining
alizarin red staining (calcification) [5]: strong degree of alizarin red staining
ALP activity ([6]; 50 μM peptide D alone): actions of ALP activity enhancement were not observed
increase in the ALP activity relative to BMP-2 alone ([6]; 50 μM peptide D combined with 100 ng/mL BMP-2): at least 5 times
